Counter-ions that a name gives are not always drawn.
melting point	Structure (SMILES)
131 to 135 °C	Cc1c(C)c(C)c(S(=O)(=O)N[C@@H](Cc2nc3ccc(/C=C/CNC4=NCCN4)cc3c(=O)[nH]2)C(=O)O)c(C)c1C (as salt: TFA) [Compound 1, 6-[(1E)-3-[(4,5-dihydro-1H-imidazol-2-yl)amino]-1-propenyl]-(αS)-3,4-dihydro-4-oxo-α-[[(2,3,4,5,6-pentamethylphenyl)sulfonyl]amino]-2-quinazolinepropanoic Acid]
148 to 151 °C	Cc1c(C)c(C)c(S(=O)(=O)N[C@@H](Cc2nc3ccc(/C=C/CNc4ccccn4)cc3c(=O)[nH]2)C(=O)O)c(C)c1C (as salt: TFA) [Compound 10, (αS)-3,4-dihydro-4-oxo-α-[[(2,3,4,5,6-pentamethylphenyl)sulfonyl]amino]-6-[(1E)-3-(2-pyridinylamino)-1-propenyl]-2-quinazolinepropanoic Acid]

— patent publication US7081460B2, “Quinazoline and quinazoline-like compounds for the treatment of integrin-mediated disorders” (Ortho-McNeil Pharmaceutical, Inc., priority 2001, dated 2006)
